Source: ChEMBL document CHEMBL1201862, “PubChem BioAssay data set” (2004)
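Five compound concentrations were applied to cells in 96-well plates for 48 hours; endpoints were derived by simple linear interpolation of the resulting dose-response curve. The concentration for 50% growth inhibition is given as GI50.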 The source made the active and inactive calls. Rule as the data show it: active = GI50 up to about 1.1 µM and inactive = higher.

What was measured:
Assay in all cases: NCI anticancer screen, dose series, 48 h
HT-29 = system: HT-29
HCT-15 = system: HCT-15
RXF 393 = system: RXF 393
TK-10 = system: TK-10
HCC 2998 = system: HCC 2998
786-0 = system: 786-0
MDA-N = system: MDA-N
HOP-92 = system: HOP-92
HL-60 = system: HL-60
IGROV-1 = system: IGROV-1
LOX IMVI = system: LOX IMVI
NCI/ADR-RES = system: NCI/ADR-RES
MOLT-4 = system: MOLT-4
CAKI-1 = system: CAKI-1
NCI-H226 = system: NCI-H226
DU-145 = system: DU-145
UACC-62 = system: UACC-62
COLO 205 = system: COLO 205
T47D = system: T47D

Measured: GI50

O=C(CCc1cccc(O)c1)NCCc1cccc(O)c1
> 100 µM: HCT-15
inactive: HT-29 > 100 µM | RXF 393 > 100 µM | TK-10 > 100 µM | HCC 2998 > 100 µM | 786-0 > 100 µM | MDA-N > 100 µM | HOP-92 > 100 µM | HL-60 > 100 µM | IGROV-1 > 100 µM | LOX IMVI > 100 µM | NCI/ADR-RES > 100 µM | MOLT-4 > 100 µM | CAKI-1 > 100 µM | NCI-H226 > 100 µM | DU-145 > 100 µM | UACC-62 > 100 µM | COLO 205 > 100 µM | T47D > 100 µM

O=C1C(N2CCN(CCOCCO)CC2)=C(Cl)C(=O)c2ncccc21
18.1 µM: HCT-15
inactive: HT-29 22.6 µM | RXF 393 20 µM | TK-10 29.4 µM | HCC 2998 > 10 µM | 786-0 21.4 µM | MDA-N 1.97 µM | HOP-92 2.62 µM | HL-60 3.06 µM | IGROV-1 16.9 µM | LOX IMVI 12.7 µM | NCI/ADR-RES 37.4 µM | MOLT-4 2.37 µM | CAKI-1 17.3 µM | NCI-H226 > 10 µM | DU-145 52.7 µM | UACC-62 21.5 µM | COLO 205 8.28 µM | T47D 2.58 µM

O=c1cc(N2CCNCC2)nc2ccccn12
> 100 µM: HCT-15
inactive: HT-29 > 100 µM | RXF 393 > 100 µM | TK-10 > 100 µM | HCC 2998 > 100 µM | 786-0 > 100 µM | MDA-N > 100 µM | HOP-92 > 100 µM | HL-60 > 100 µM | IGROV-1 > 100 µM | LOX IMVI > 100 µM | NCI/ADR-RES > 100 µM | MOLT-4 > 100 µM | CAKI-1 > 100 µM | NCI-H226 > 100 µM | DU-145 > 100 µM | UACC-62 > 100 µM | COLO 205 > 100 µM | T47D > 100 µM

COC(=O)C1=C(O)C(C(=O)OC)[C@]2(O)[C@H](C(=O)OC)[C@H]1C[C@@H](c1c(Cl)cccc1Cl)[C@H]2C(=O)OC (stereo partly drawn)
1.74 µM: HCT-15
inactive: HT-29 2.33 µM | RXF 393 1.75 µM | HCC 2998 1.66 µM | 786-0 1.73 µM | MDA-N 1.37 µM | HOP-92 2.69 µM | HL-60 5.81 µM | IGROV-1 2.16 µM | LOX IMVI 1.87 µM | NCI/ADR-RES 2.04 µM | MOLT-4 1.81 µM | CAKI-1 2.83 µM | NCI-H226 2.14 µM | DU-145 2.68 µM | UACC-62 2.02 µM | COLO 205 2.07 µM | T47D 3.79 µM

O=c1c2ccccc2nc(Nc2cccc(Cl)c2)n1/N=C/C=C/c1ccccc1
inactive: HT-29 61.9 µM | RXF 393 > 100 µM | TK-10 > 100 µM | HCC 2998 94 µM | 786-0 48.5 µM | MDA-N > 100 µM | HOP-92 91.2 µM | HL-60 > 100 µM | IGROV-1 > 100 µM | LOX IMVI > 100 µM | NCI/ADR-RES 63.5 µM | MOLT-4 > 100 µM | CAKI-1 > 100 µM | NCI-H226 99.5 µM | DU-145 > 100 µM | UACC-62 41.3 µM | COLO 205 > 100 µM | T47D 64.9 µM
> 100 µM: HCT-15

C=C(C(N)=O)c1ccc([N+](=O)[O-])o1
9.02 µM: HCT-15
inactive: HT-29 11.9 µM | RXF 393 3.08 µM | TK-10 14.1 µM | HCC 2998 16.7 µM | 786-0 11.2 µM | MDA-N 3 µM | HOP-92 6.49 µM | HL-60 3.16 µM | IGROV-1 10.6 µM | LOX IMVI 10.1 µM | NCI/ADR-RES 15.5 µM | MOLT-4 3.84 µM | CAKI-1 3.4 µM | NCI-H226 20.3 µM | DU-145 11.4 µM | UACC-62 7.03 µM | COLO 205 3.31 µM | T47D 20.5 µM

COc1cc(C(=O)Oc2c(C(C)=O)sc3c2c(=O)n(-c2ccccc2)c(=S)n3-c2ccccc2)cc(OC)c1OC
22.2 µM: HCT-15
inactive: HT-29 11 µM | RXF 393 18.9 µM | TK-10 38.9 µM | HCC 2998 24.7 µM | 786-0 19.6 µM | MDA-N 22.8 µM | HOP-92 19.3 µM | HL-60 24.7 µM | IGROV-1 21 µM | LOX IMVI 18.7 µM | NCI/ADR-RES 15.4 µM | MOLT-4 25 µM | CAKI-1 33.9 µM | NCI-H226 3.86 µM | DU-145 26.4 µM | UACC-62 23.9 µM | COLO 205 15.7 µM | T47D 26.5 µM

CCCCCCCCCc1cc(=O)c2c(O)cc(O)cc2o1
inactive: HT-29 19.1 µM | RXF 393 15.1 µM | TK-10 18.8 µM | HCC 2998 21.1 µM | 786-0 21.6 µM | MDA-N > 100 µM | HOP-92 16.3 µM | HL-60 14.3 µM | IGROV-1 16.5 µM | LOX IMVI 21.8 µM | NCI/ADR-RES 17.6 µM | MOLT-4 4.91 µM | CAKI-1 > 100 µM | NCI-H226 17.8 µM | DU-145 20.2 µM | COLO 205 27.2 µM | T47D 22.2 µM
18.8 µM: HCT-15

COC(=O)C(Cc1ccccc1)NC(=O)CSc1nnc(COc2ccc(Cl)cc2)n1-c1ccccc1 (stereo not drawn)
inactive: HT-29 23.4 µM | RXF 393 19.1 µM | TK-10 19.4 µM | HCC 2998 5.61 µM | 786-0 16.3 µM | MDA-N 20.5 µM | HOP-92 26.4 µM | HL-60 20.6 µM | IGROV-1 27.5 µM | LOX IMVI 14.6 µM | NCI/ADR-RES 21.8 µM | MOLT-4 34 µM | NCI-H226 40.6 µM | DU-145 34.8 µM | UACC-62 14.6 µM | COLO 205 20.4 µM | T47D 26.1 µM
35.2 µM: HCT-15

CC1(C)C2CCC(N)(C2)C1O (stereo not drawn)
inactive: RXF 393 > 100 µM | TK-10 > 100 µM | HCC 2998 > 100 µM | 786-0 > 100 µM | MDA-N > 100 µM | HOP-92 > 100 µM | HL-60 > 10 µM | IGROV-1 > 100 µM | LOX IMVI > 100 µM | NCI/ADR-RES > 100 µM | MOLT-4 > 100 µM | CAKI-1 > 100 µM | NCI-H226 > 100 µM | DU-145 > 100 µM | UACC-62 > 100 µM | COLO 205 > 100 µM | T47D > 100 µM
> 100 µM: HCT-15

CC1=NN(c2cccc(Cl)c2)C2(C1=Cc1ccc(O)cc1)C(Cl)C(=O)N2c1nc2ccccc2s1 (stereo not drawn)
15.5 µM: HCT-15
inactive: HT-29 21.7 µM | RXF 393 20.5 µM | TK-10 37.7 µM | HCC 2998 18.8 µM | 786-0 24.3 µM | MDA-N 23.3 µM | HOP-92 15.1 µM | HL-60 26.4 µM | IGROV-1 14.1 µM | LOX IMVI 22.1 µM | NCI/ADR-RES 21.4 µM | MOLT-4 14.2 µM | CAKI-1 27.1 µM | NCI-H226 27.2 µM | DU-145 21.5 µM | T47D 15.8 µM
